Data taken from article PMC10463376, “Design, synthesis, in vitro anticancer, molecular docking and SAR studies of new series of pyrrolo[2,3-d]pyrimidine derivatives” (BMC Chemistry, 2023).
Values after ≈ are worked out from the molar mass of the structure shown. “Also recorded” adds a separate entry of the source. Read-outs that look alike come from different tables or passages of the source.

Assays:
MCF7 breast cancer cells = experiment: MTT assay, MCF7; settings: for IC50 / cytotoxicity at 100 µg/mL: Homo sapiens, MCF7, 72 h; for IC50: read-out: IC50 MCF7; for cytotoxicity at 100 µg/mL / cytotoxicity: read-out: MTT cell proliferation mortality assay (%) MCF7; for cytotoxicity: at 100 μg/ml, 72 h
Excerpt: (§1) All of the following steps were done in a sterile Laminar flow class II biosafety cabinet (Baker, SG406INT, Sanford, ME, USA). DMEM was used as a suspension medium for breast cancer (MCF7), colorectal cancer (HCT116), prostate cancer (PC3), liver cancer (HePG2), pancreatic cancer (PACA2) and lung cancer (A549), while normal cell line (BJ1) was suspended in DMEM-F12 medium. The selected cell lines were purchased from American Type Culture Collection (ATCC). The media were supplemented with a 1% antimycotic-antibiotic mixture (10,000 µg/ml streptomycin sulfate, 25 µg/ml Amphotericin B, and 10,000 U/ml Potassium Penicillin) and 1% L-glutamine. 10 × 10^4cells/well were seeded in 96 well microtiter plates and incubated for 24 h at 37 ℃ under 5% carbon dioxide using a water-jacketed Carbon dioxide incubator (Sheldon, SCO5A, OR, USA). […] After the incubation time of 72 h, the medium was removed. Afterward, 40 µl MTT salt ([…]) was added to each well and kept for 4 h under the same conditions of 37 °C and 5% carbon dioxide. Finally, 200 μl of 10% Sodium dodecyl sulfate (SDS) in deionized water was added to each well and incubated overnight at 37 °C. The step of SDS addition was done to stop the reaction and dissolve the formed formazan crystals. The absorbance was then measured at a wavelength of 595 nm and the reference wavelength was set at 620 nm using a microplate multi-well reader (Bio-Rad Laboratories Inc., model 3356, California, USA). […] A statistical significance analysis was determined between the samples and the negative control using an independent t-test by SPSS 11 program. Dimethyl sulfoxide (DMSO) was the vehicle that dissolved our synthesized compounds and its concentration in the cells was less than 0.2%. IC50 values were calculated using the GraphPad Prism 6 program. The degree of selectivity of the synthetic compounds was expressed as SI = IC50 of a pure compound in a normal cell line/IC50 of the same pure compound in the cancer cell line, where IC50 is the concentration of the compound required to kill 50% of the cells.

A549 lung cancer cells = experiment: MTT assay, A549; settings: for IC50 / cytotoxicity at 100 µg/mL: Homo sapiens, A549, 72 h; for IC50: read-out: IC50 A549
Excerpt: as §1

[1] = test system: HCT116 colorectal cancer cells; experiment: MTT assay, HCT116; settings: for IC50 / cytotoxicity at 100 µg/mL: Homo sapiens, HCT-116, 72 h; for IC50: read-out: IC50 HCT116
Excerpt: as §1

[2] = test system: PC3 prostate cancer cells; experiment: MTT assay, PC3; settings: 72 h; for IC50 / cytotoxicity at 100 µg/mL: Homo sapiens; for IC50: read-out: IC50 PC3
Excerpt: as §1

HePG2 liver cancer cells = experiment: MTT assay, HePG2; settings: Homo sapiens, HepG2, 72 h; for IC50: read-out: IC50 HePG2; for cytotoxicity at 100 µg/mL: read-out: MTT cell proliferation mortality assay (%) HePG2
Excerpt: as §1

[3] = test system: PACA2 pancreatic cancer cells; experiment: MTT assay, PACA2; settings: Homo sapiens, PaCa-2, 72 h; for cytotoxicity at 100 µg/mL: read-out: MTT cell proliferation mortality assay (%) PACA2; for IC50: read-out: IC50 PACA2
Excerpt: as §1

[4] = MTT assay, normal cell line BJ1; assay type: cell-based; settings: human, at 100 μg/ml, read-out: MTT cell proliferation mortality assay (%) BJ1
Excerpt: as §1

BAX = experiment: ELISA BAX in MCF7 cells; assay type: cell-based, human; settings: MCF7 cells treated with IC50; untreated control 4.92
Excerpt: (§2) Elisa assay was used to determine the concentrations of Human caspases-3, -8, Bax, and Bcl2 in PACA2- and A549-treated cells. Also, the concentrations of caspase-8, Bax, and Bcl2 in MCF7-treated cells were detected. The procedures were followed up according to the instructions described in the following kits; Invitrogen human Caspase-3 Elisa Kit, Catalog KHO1091, DRG® human Caspase-8 ELISA Kit, Catalog (EIA-4863), Human Bax ELISA Kit (ab199080) and Human Bcl-2 ELISA Kit (ab119506) respectively. Shortly, the protocol described in the above kits was as followed; at the beginning, all the reagents, samples and standards were prepared. 100 μl of samples or standard were micro pipetted to each well of micro-well strip and kept at room temperature for 2 h. After washing the micro-well strips three times with washing buffer, the prepared antibody (anti-rabbit-IgG-HRP) at a concentration of 100 μl was added to each well at room temperature for 1 h. Then, the micro-well strips were washed again three times. Afterward, the prepared tetramethyl-benzidine (TMB) solution (100 μl) was added to the micro-well strips and kept for 10 min. At last, about 50 μl of stop solution was pipetted to each well to inactivate the enzyme completely. The absorbance of all samples was measured at a wavelength of 460 nm and compared to that of the standard. Curve fitting software was used to plot a standard curve and the concentrations for the unknown samples were measured from the standard curve.

Bcl2 = experiment: ELISA Bcl2 in MCF7 cells; assay type: cell-based, human; settings: MCF7 cells treated with IC50; untreated control 14.37
Excerpt: as §2

Bcl-2 = experiment: RT-qPCR Bcl-2 mRNA in MCF7; assay type: cell-based, human; settings: MCF7, vs negative control
Protocol: (§3) All of the extractions were conducted on ice with ice-cold reagents. Total RNA from the different cell lines was isolated using Trizol (Invitrogen; Life Technologies, USA) according to the method of Sthoeger et al.. The 260:280 ratios were measured to determine RNA quality after the isolation method was completed according to the manufacturer’s instructions. A high-capacity cDNA reverse transcription kit was used to produce complementary DNA (cDNA) (Applied Biosystems, USA). […] The relative gene expression method (i.e., ΔΔCT) was used to analyze the real-time PCR data, as explained in Applied Biosystem User Bulletin No. 2. Each sample and gene were normalized using the β-actin gene.

CDK4 = experiment: RT-qPCR CDK4 mRNA in MCF7; assay type: cell-based, human; settings: MCF7, vs negative control
Protocol: as §3

DR4 = experiment: RT-qPCR DR4 mRNA in MCF7; assay type: cell-based, human; settings: MCF7, vs negative control
Protocol: as §3

[5] = read-out: MTT cell proliferation mortality assay (%) A549, at 100 μg/ml, 72 h
[6] = read-out: MTT cell proliferation mortality assay (%) HCT116, at 100 μg/ml, 72 h
[7] = read-out: MTT cell proliferation mortality assay (%) PC3, at 100 μg/ml, 72 h

Row | Compound | IC50 (MCF7 breast cancer cells) | cytotoxicity at 100 µg/mL (MCF7 breast cancer cells) | IC50 (A549 lung cancer cells) | cytotoxicity at 100 µg/mL (A549 lung cancer cells; [5]) | IC50 [1] | cytotoxicity at 100 µg/mL [1, 6] | IC50 [2] | cytotoxicity at 100 µg/mL [2, 7] | IC50 (HePG2 liver cancer cells) | cytotoxicity at 100 µg/mL (HePG2 liver cancer cells) | cytotoxicity at 100 µg/mL [3] | cytotoxicity at 72 h, 100 μg/ml [4] | BAX level (ELISA) (BAX) | Bcl2 level (ELISA) (Bcl2) | Bcl-2 mRNA level (Bcl-2) | CDK4 mRNA level (CDK4) | DR4 mRNA level (DR4) | IC50 [3] | other results
1 | COc1ccc(-c2c(Cl)n(-c3ccc(Cl)cc3Cl)c3ncnc(Cl)c23)cc1OC [Compound 4b, 4,6-dichloro-7-(2,4-dichlorophenyl)-5-(3,4-dimethoxyphenyl)-7H-pyrrolo[2,3-d]pyrimidine] | 45.8 ± 1 µg/mL (≈ 97.6 µM) | 90.3 ± 4.9% | 17.5 ± 0.4 µg/mL (≈ 37.3 µM) | 100% | 58.4 ± 0.7 µg/mL (≈ 124 µM) | 80 to 90% | 28.5 ± 0.8 µg/mL (≈ 60.7 µM) | 100% | 84.3 ± 0.7 µg/mL (≈ 180 µM) | 84.3 ± 0.9% | 100% | 22.5 ± 0.3% | – | – | – | – | – | – | cytotoxicity (MCF7 breast cancer cells): 80 to 95%; cytotoxicity [1, 6]: 90.2 ± 1%
2 | NNc1ncnc2c1c(-c1ccc(Br)cc1)c(Cl)n2-c1ccc(Cl)cc1Cl [Compound 14a, 5-(4-bromophenyl)-6-chloro-7-(2,4-dichlorophenyl)-4-hydrazineyl-7H-pyrrolo[2,3-d]pyrimidine] | 1.7 ± 0.4 µg/mL (≈ 3.52 µM) | 100% | – | 100% | – | 100% | – | – | 37.9 ± 0.9 µg/mL (≈ 78.4 µM) | 100% | 100% | 30.8 ± 0.2% | 9.99 pg/mL | 2.4 pg/mL | down-regulated | lowered; also recorded: down-regulated | increased; also recorded: up-regulated | – | –
3 | COc1ccc(-c2c(Cl)n(-c3ccc(Cl)cc3Cl)c3ncnc(NN)c23)cc1OC [Compound 14b, 6-chloro-7-(2,4-dichlorophenyl)-5-(3,4-dimethoxyphenyl)-4-hydrazineyl-7H-pyrrolo[2,3-d]pyrimidine] | 16.8 ± 0.9 µg/mL (≈ 36.1 µM) | 94.9 ± 1.1% | – | 100% | – | 100% | 18.7 ± 0.2 µg/mL (≈ 40.2 µM) | 100% | 17.5 ± 0.8 µg/mL (≈ 37.7 µM) | 100% | 100% | – | 14.25 pg/mL | 8.25 pg/mL | down-regulated | lowered; also recorded: down-regulated | increased; also recorded: up-regulated | – | cytotoxicity (MCF7 breast cancer cells): 80 to 95%
4 | COc1ccc(-c2c(Cl)n(-c3ccc(Cl)cc3Cl)c3ncnc(N4CCN(C)CC4)c23)cc1OC [Compound 16b, 6-chloro-7-(2,4-dichlorophenyl)-5-(3,4-dimethoxyphenyl)-4-(4-methylpiperazin-1-yl)-7H-pyrrolo[2,3-d]pyrimidine] | 5.7 ± 0.9 µg/mL (≈ 10.7 µM) | 100% | – | 100% | – | – | – | – | – | – | 100% | – | 13.25 pg/mL | 4.25 pg/mL | down-regulated | lowered | increased | – | –
5 | CN1CCN(c2nc(C(Cl)(Cl)Cl)nc3c2c(-c2ccc(Br)cc2)c(Cl)n3-c2ccc(Cl)cc2Cl)CC1 [Compound 17, 5-(4-bromophenyl)-6-chloro-7-(2,4-dichlorophenyl)-4-(4-methylpiperazin-1-yl)-2-(trichloromethyl)-7H-pyrrolo[2,3-d]pyrimidine] | – | 74.3 ± 1.7% | 34.1 ± 1.5 µg/mL (≈ 51 µM) | 80 to 90% | 37.8 ± 0.4 µg/mL (≈ 56.5 µM) | 100% | 66.8 ± 2 µg/mL (≈ 99.8 µM) | 80 to 90% | 8.7 ± 0.8 µg/mL (≈ 13 µM) | 100% | 100% | 12.5 ± 1.7% | – | – | – | – | – | 6.4 ± 0.7 µg/mL (≈ 9.57 µM) | cytotoxicity (A549 lung cancer cells; [5]): 89.2 ± 0.4%; cytotoxicity ([2]; read-out: MTT cell proliferation mortality assay (%) PC3, at 100 μg/ml): 79.5 ± 0.5%
6 | COc1ccc(-c2c(Cl)n(-c3ccc(Cl)cc3Cl)c3ncnc(N4CCOCC4)c23)cc1OC [Compound 18b, 4-(6-chloro-7-(2,4-dichlorophenyl)-5-(3,4-dimethoxyphenyl)-7H-pyrrolo[2,3-d]pyrimidin-4-yl)morpholine] | 3.4 ± 0.3 µg/mL (≈ 6.54 µM) | 100% | – | 11.2 ± 0.6% | – | – | 19.2 ± 0.9 µg/mL (≈ 36.9 µM) | 100% | 28.1 ± 0.4 µg/mL (≈ 54.1 µM) | 100% | 100% | 20.6 ± 2.1% | 7.25 pg/mL | 9.24 pg/mL | down-regulated | lowered; also recorded: down-regulated | increased; also recorded: up-regulated | 15 ± 0.9 µg/mL (≈ 28.9 µM) | –
7 | COc1cccc2c1C(=O)c1c(O)c3c(c(O)c1C2=O)C[C@@](O)(C(=O)CO)C[C@@H]3O[C@H]1C[C@H](N)[C@H](O)[C@H](C)O1 [Dox, Doxorubicin, reference compound] | 26.1 ± 0.1 µg/mL (≈ 48 µM) | 100% | 28.3 ± 1.3 µg/mL (≈ 52.1 µM) | – | 37.6 ± 0.8 µg/mL (≈ 69.2 µM) | – | 23.8 ± 0.2 µg/mL (≈ 43.8 µM) | – | 21.6 ± 0.8 µg/mL (≈ 39.7 µM) | 100% | 100% | – | – | – | down-regulated | lowered | increased | 28.3 ± 0.4 µg/mL (≈ 52.1 µM) | cytotoxicity at 100 µg/mL (A549 lung cancer cells; read-out: MTT cell proliferation mortality assay (%) A549): 100%; cytotoxicity at 100 µg/mL ([1]; read-out: MTT cell proliferation mortality assay (%) HCT116): 100%; cytotoxicity at 100 µg/mL ([2]; read-out: MTT cell proliferation mortality assay (%) PC3): 100%
